What was measured:
[1] = Food effect study (FES), 150 mg single dose fed vs fasted, pharmacokinetics in healthy subjects, plasma; format: in vivo, human; conditions: for Cmax / AUC(0-t): po, 150 mg, FES 150 mg single oral dose, geometric mean (CV%); for AUC(0-t): read-out: AUC(0-24)
Protocol: (§1) This was a single-centre, double-blind, randomised, placebo-controlled single ascending dose (SAD) and multiple ascending dose (MAD) study of anle138b in doses of up to 300 mg per day in healthy subjects. In addition, the effect of food (FES) on the PK of anle138b in healthy subjects was examined using single doses of 150 mg. Participants were recruited from Quotient Sciences (Nottingham, UK) volunteer database.
This dose was administered either i) after a standard FDA-approved high-fat breakfast or ii) in the fasted state i.e., fasted from all food and drink (except water) for a minimum of 8 h prior to dosing. In total, one cohort of 12 subjects was randomised in a 1:1 ratio to 2 treatment sequences (fed→fasted) or (fasted→fed). A minimum washout of at least 5 half-lives of anle138b between each dose was assured.
(§2) Secondary outcome measures were the oral PK of single (SAD) and multiple (MAD) ascending doses of anle138b in the fasted state as well as the effect of co-administration with food on the PK of anle138b. To this end PK blood samples were taken at day 1 (and for MAD day 7) pre-dose and at 0·5, 1, 1·5, 2, 3, 4, 6, 8, 10, 12, 16 and 20 h post-dose, at days 2 to 6 pre-dose only (MAD) and 24, 30, 36 and 48 h post final dose. Analysis of anle138b in plasma was done at Aptuit, an Evotec company, in Verona, Italy. Time point of last quantifiable data was seen to increase with an increase in dose as follows: SAD: from the 50mg dose (subjects ranged between 8-24h) to the 300mg dose (subjects ranged between 36-48h). MAD: from the 100mg dose (subjects ranged between 8-36h) to the 300mg dose (subjects ranged between 20-48h). In FES, subjects ranged between 24-48h.
The study was exploratory and no formal sample size calculation was made. Based on experience from previous studies of similar design, eight subjects per cohort were enrolled for parts 1 (SAD) and 2 (MAD) and a total of twelve subjects for part 3 (FES). Populations and analysis sets were determined for safety and PK data after database lock using the criteria defined in the reporting and analysis plan. The safety population and safety analysis set for SAD and MAD were defined after database lock but prior to study unblinding. Statistical analysis and production of summary tables, figures and listings for all safety data (AEs, vital signs, ECGs and safety laboratory assessments) including changes from baseline as required in this study were performed using the statistical package SAS (v9·4). Additional statistics was provided for PK-related data including coefficient of variation (CV%), geometric mean, geometric CV%, and the number n of subjects that were included in the natural logarithmic transformation). In SAD and MAD, dose proportionality was assessed. Formal statistical analysis was performed on the log-transformed PK parameters AUC(0-last), AUC(0-inf), and Cmax for SAD (day 1), and AUC(0-tau) and Cmax for MAD (day 1 and day 7) to assess dose proportionality using the following power model: loge (AUC or Cmax) = µ + βx loge (dose). The estimate obtained for β is a measure of dose proportionality. The estimate of β together with its 90% confidence interval (CI) (βl, βu) was used to quantify the degree of non-proportionality. In MAD, formal statistical analysis was performed on the PK parameters AUC(0-tau) and Cmax to assess dose accumulation. Log-transformed AUC(0-tau) and Cmax was subjected to a mixed-effects model with treatment (dose level), day (day 1 or 7) and treatment-by-day interaction as fixed effects and subject as a random effect. The adjusted means obtained from the model, including differences for each comparison of interest and the associated 90% CIs, was back-transformed on the log scale to obtain adjusted geometric means, adjusted geometric mean ratios (GMRs) and 90% CIs of the ratio. The GMRs and 90% CIs were provided for each treatment and overall, i.e., day 7/day 1. […]

[2] = Multiple ascending dose (MAD, QD 7 days) oral pharmacokinetics of anle138b in healthy subjects, plasma; format: in vivo, human
Protocol: as §1
As a safety precaution, sentinel dosing was performed for all SAD and MAD cohorts. In SAD, subjects received a single dose of anle138b or placebo after fasting from all food and drink (except water) for a minimum of 8 h prior to dosing. The dosing in the four SAD-cohorts were 50 mg, 100 mg, 200 mg and 300 mg of free anle138b equivalent, respectively. In the MAD part, participants received anle138b or placebo once daily (QD) for 7 days after fasting from all food and drink (except water) for a minimum of 8 h prior to dosing. The dosing in the three MAD-cohorts was 100 mg, 200 mg and 300 mg of free anle138b equivalent, respectively. Post dosing mouth and hand checks were conducted to ensure the capsules were swallowed. In-study decisions regarding continuation and dose escalation were made by the safety advisory committee (SAC) comprising the principal investigator, the sponsor's medical monitor and a PK expert. For dose escalation to proceed, data needed to be available from a minimum of 6 subjects per cohort with completed per protocol safety and PK assessments up to 48 h after dosing to ensure at least 4 subjects had received active IMP. The decision to proceed to the next higher dose level was based on safety, tolerability and available PK data to 48 h post-dose. The following data were required: Adverse events, vital signs, safety laboratory, ECG, physical examinations, plasma concentrations of anle138b with interim PK parameter estimations (Tmax, Cmax, AUC(0-24), AUC(0-tau), AUC(0-last) and T½, where applicable). Data were provided to the SAC in accordance with Quotient Sciences’ standard operating procedure (SOP) on interim dose decision-making and dose escalation.
as §2
The study was exploratory and no formal sample size calculation was made. Based on experience from previous studies of similar design, eight subjects per cohort were enrolled for parts 1 (SAD) and 2 (MAD) and a total of twelve subjects for part 3 (FES). Populations and analysis sets were determined for safety and PK data after database lock using the criteria defined in the reporting and analysis plan. The safety population and safety analysis set for SAD and MAD were defined after database lock but prior to study unblinding. Statistical analysis and production of summary tables, figures and listings for all safety data (AEs, vital signs, ECGs and safety laboratory assessments) including changes from baseline as required in this study were performed using the statistical package SAS (v9·4). Additional statistics was provided for PK-related data including coefficient of variation (CV%), geometric mean, geometric CV%, and the number n of subjects that were included in the natural logarithmic transformation). […]

[3] = human, plasma, fed (high-fat breakfast)

SMILES: Brc1cccc(-c2cc(-c3ccc4c(c3)OCO4)n[nH]2)c1 [anle138b, 3-(1,3-benzodioxol-5-yl)-5-(3-bromophenyl)-1H-pyrazole]
- Time point of last quantifiable data (range of subjects) ([1]; FES 150 mg): 24 to 48 h
- Effect of food on Cmax ([1]; FES 150 mg, fed vs fasted): decreased by about half
- Food effect on AUC ([1]; FES 150 mg, fed vs fasted): clinically insignificant
- bioavailability ([1]; human, plasma, oral, FES 150 mg, 90% CI: 61%, 88%, read-out: Dose bioavailable in the fed state compared to the fasted state): ~74%
- Cmax ([1]; human, plasma, fasted): 442 ng/mL
- AUC(0-t) ([1]; human, plasma, fasted): 896 ng·h/mL
- Cmax [1, 3]: 196 ng/mL
- AUC(0-t) [1, 3]: 641 ng·h/mL
- Time point of last quantifiable data (range of subjects) ([2]; MAD 100mg dose): 8 to 36 h
- Time point of last quantifiable data (range of subjects) ([2]; MAD 300mg dose): 20 to 48 h
- Effect of multiple dosing on Tmax ([2]; MAD day 7 vs day 1): unaffected by multiple dosing
- Exposure relative to the level required for full efficacy in PD mouse model (≥300 ng*h/ml) ([2]; highest dose tested (300 mg), multiple dosing): more than twice this exposure
- Cmax ([2]; human, plasma, oral, 100 mg, MAD Cohort A 100 mg QD, dosing day 1, fasted, geometric mean (CV%)): 135 ng/mL
- AUC(0-t) ([2]; human, plasma, oral, 100 mg, MAD Cohort A 100 mg QD, dosing day 1, fasted, geometric mean (CV%), read-out: AUC(0-24)): 261 ng·h/mL
- AUC(0-t) ([2]; human, plasma, oral, 100 mg, MAD Cohort A 100 mg QD, dosing day 7, fasted, geometric mean (CV%), read-out: AUC(0-24)): 141 ng·h/mL
- Cmax ([2]; human, plasma, oral, 200 mg, MAD Cohort B 200 mg QD, dosing day 1, fasted, geometric mean (CV%)): 447 ng/mL
- AUC(0-t) ([2]; human, plasma, oral, 200 mg, MAD Cohort B 200 mg QD, dosing day 1, fasted, geometric mean (CV%), read-out: AUC(0-24)): 905 ng·h/mL
- Cmax ([2]; human, plasma, oral, 200 mg, MAD Cohort B 200 mg QD, dosing day 7, fasted, geometric mean (CV%)): 128 ng/mL
- AUC(0-t) ([2]; human, plasma, oral, 200 mg, MAD Cohort B 200 mg QD, dosing day 7, fasted, geometric mean (CV%), read-out: AUC(0-24)): 308 ng·h/mL
- AUC(0-t) ([2]; human, plasma, oral, 200 mg, multiple dosing at a daily dose of 200 mg, read-out: Exposure level (AUC0-24)): ≥ 300 ng·h/mL
- Cmax ([2]; human, plasma, oral, 300 mg, MAD Cohort C 300 mg QD, dosing day 1, fasted, geometric mean (CV%)): 910 ng/mL
- AUC(0-t) ([2]; human, plasma, oral, 300 mg, MAD Cohort C 300 mg QD, dosing day 1, fasted, geometric mean (CV%), read-out: AUC(0-24)): 2210 ng·h/mL
- Cmax ([2]; human, plasma, oral, 300 mg, MAD Cohort C 300 mg QD, dosing day 7, fasted, geometric mean (CV%)): 307 ng/mL
- AUC(0-t) ([2]; human, plasma, oral, 300 mg, MAD Cohort C 300 mg QD, dosing day 7, fasted, geometric mean (CV%), read-out: AUC(0-24)): 633 ng·h/mL
- half-life ([2]; human, plasma, oral, MAD Cohort B 200 mg QD, dosing day 7, fasted, geometric mean (CV%), N=5): ~10 h
- Day by which steady state exposure appeared to be reached ([2]; trough (pre-dose) levels, repeated daily dosing): ≤ 5 days

Reference: paper PMC9065877, “Safety, tolerability and pharmacokinetics of the oligomer modulator anle138b with exposure levels sufficient for therapeutic efficacy in a murine Parkinson model: A randomised, double-blind, placebo-controlled phase 1a trial” (EBioMedicine, 2022)
